Molecular target: T1, splicing factor 3A subunit 3 (SF3A3) (Homo sapiens, UniProt Q12874)
T1 sequence (Q12874 1-501): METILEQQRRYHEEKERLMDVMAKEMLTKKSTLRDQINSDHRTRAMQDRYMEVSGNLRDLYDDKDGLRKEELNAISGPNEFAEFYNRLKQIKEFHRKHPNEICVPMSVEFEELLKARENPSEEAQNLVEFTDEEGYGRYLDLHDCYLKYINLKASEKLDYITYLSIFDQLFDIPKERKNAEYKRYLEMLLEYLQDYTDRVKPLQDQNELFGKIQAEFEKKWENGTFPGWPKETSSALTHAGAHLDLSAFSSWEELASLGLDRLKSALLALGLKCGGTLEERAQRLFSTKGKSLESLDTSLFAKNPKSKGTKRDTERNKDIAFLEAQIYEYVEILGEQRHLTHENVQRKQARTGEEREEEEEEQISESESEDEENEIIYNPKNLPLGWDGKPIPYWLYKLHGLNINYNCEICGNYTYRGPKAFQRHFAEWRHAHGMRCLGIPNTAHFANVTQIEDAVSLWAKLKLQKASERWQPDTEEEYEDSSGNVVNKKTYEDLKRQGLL
Experiment: SPR (Biacore 8K, immobilized purified human SF3A3, steady-state affinity); supported by pulldown mass spectrometry
Format: binding

Structure (SMILES): S=C=NCCc1ccccc1 [PEITC]
- Kd: 10.1 µM

Reference: publication PMC12463058, “SF3A3 Drives Tumorigenesis in Endometrial Cancer by Enhancing c‐FOS Expression and Represents a Potential Therapeutic Target” (Advanced Science, 2025)
